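The compound was tested at five concentrations on cells cultured in 96-well plates, with a 48-hour exposure period. Here, GI50 denotes the concentration required for 50% inhibition of growth. At the TGI there is no net growth.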
Experiments:
Experiment in all cases: inhibition of tumour cell growth, NCI panel, 48 h
A549 NSCLC = test system: A549 NSCLC
DU-145 prostate = test system: DU-145 prostate
HCT-15 colon = test system: HCT-15 colon
MALME-3M melanoma = test system: MALME-3M melanoma
NCI-H23 lung = test system: NCI-H23 lung
OVCAR-3 ovarian = test system: OVCAR-3 ovarian
SK-MEL-5 melanoma = test system: SK-MEL-5 melanoma
SN12C renal = test system: SN12C renal
SNB-19 CNS = test system: SNB-19 CNS
TK-10 renal = test system: TK-10 renal

Compound	GI50 (A549 NSCLC) [µM]	TGI (A549 NSCLC) [µM]	GI50 (DU-145 prostate) [µM]	TGI (DU-145 prostate) [µM]	GI50 (HCT-15 colon) [µM]	TGI (HCT-15 colon) [µM]	GI50 (MALME-3M melanoma) [µM]	TGI (MALME-3M melanoma) [µM]	GI50 (NCI-H23 lung) [µM]	TGI (NCI-H23 lung) [µM]	GI50 (OVCAR-3 ovarian) [µM]	TGI (OVCAR-3 ovarian) [µM]	GI50 (SK-MEL-5 melanoma) [µM]	TGI (SK-MEL-5 melanoma) [µM]	GI50 (SN12C renal) [µM]	TGI (SN12C renal) [µM]	GI50 (SNB-19 CNS) [µM]	TGI (SNB-19 CNS) [µM]	GI50 (TK-10 renal) [µM]	TGI (TK-10 renal) [µM]
N[C@@H]1CCCN(c2c(/C=C3\SC(=O)NC3=O)cccc2-c2ccccc2)C1	13.6	31.8	13.7	28.1	13.7	29.5	7.52	24.5	15.3	33.1	15.3	29.4	11.2	23.6	14.4	29.5	2.93	13.2	13.6	26.8
CCc1nc(N)nc(N)c1-c1ccc(NCCc2ccccc2)c([N+](=O)[O-])c1		21.8		> 53.8		> 57.5		9.74		> 54.1		32.2		10.1		> 71.3		> 63.1		> 69.7
COc1ccc(-c2cc(=O)c3c(O)cc(C)cc3o2)cc1OC		> 100		> 100		> 100		> 100		> 100		> 100		> 100		> 100		> 100		> 100
C[C@H]1C(Oc2ccc(O)cc2)OC2OC3(C)CCC4[C@H](C)CCC1C24OO3 (stereo not given in full)	12.2	30.6	20.1	43.2	2.36	23.8	14.1	28.9	12	27.7	6.12	32.8	13.2	27.3	11.7	26	17.1	36.5	15.9	37.8
O=C(c1ccccc1)c1nc2ccc(C(F)(F)F)cc2[n+]([O-])c1C(F)(F)F	26	> 100	71.9	> 100	35.1	> 100	47.6	> 100	29.1	> 100	24.2	> 100	17.5	48	54	> 100	71.5	> 100	37.5	> 100

Source: PubChem BioAssay (NCI)
